Patent US11905268B2, “Anthranilic acid derivatives and their use in the treatment of human cancers” (UNIVERSITY OF CENTRAL FLORIDA RESEARCH FOUNDATION, INC., priority 2018, dated 2024)
Read-outs that look alike come from different tables or passages of the source.

Legend:
L3.6pl cells = test: cells; type: cell-based; conditions: for IC50: Homo sapiens, L3.6pl; for L3.6pl MTC: maximum tolerated concentration where cells are >90% viable
CHO cells [1] = test: Cytotoxicity screen in CHO cells; conditions: for IC50 at 48 h: Chinese hamster, CHO K1 cells; for tox (DFMO Assay): listed with DFMO assay
Experimental: CHO K1 cells were grown in growth medium to 70% confluency and washed in PBS and trypsinized. […] Cells were spun at 100×g for 1 minute and incubated at 37° C. in a humidified CO2 incubator for 24 hours. […] Cellular ATP content was then assayed by adding 3 uL of ATPLite with a Beckman BioRAPTR FRD dispenser and incubated for 10 minutes at room temperature. Plates were spun at 200×g for 1 minute and read on a Perkin Elmer Viewlux multimode plate reader using luminescence mode. This assay was used for testing dose-response of dry powders.
CHO K1 cells were grown in growth medium to 70% confluency and washed in PBS and trypsinized. Cells were plated in assay medium at 10000 cells/mL for 200 cells per well using a Thermo Multidrop Combi in 20 uL into a white Greiner plate. Cells were spun at 100×g for 1 minute and incubated at 37° C. in a humidified CO2 incubator for 24 hours. […] This was followed by adding by 10 μL of assay medium to all wells with a Beckman BioRAPTR FRD dispenser. The plates were spun at 200×g for 1 minute and incubated at 37° C. in a humidified 5% CO2 incubator for 48 hours. Cellular ATP content was then assayed by adding 20 μL of ATPLite with a Beckman BioRAPTR FRD dispenser and incubated for 10 min at room temperature. Plates were spun at 200×g for 1 minute and read on a Perkin Elmer Envision for multimode plate reader using luminescence mode. Duplicates were run for each compound concentration, and the curves represent the average of the duplicates as percent viability.
The final compound concentration was either 20 μM or 10 μg/mL (depending upon the compound source). A successful PTI in Assay 1 would block the uptake of the toxic Ant44 probe and rescue the cells back to >90% relative growth vs an untreated control. It was critical to also evaluate the toxicity of the PTI by itself as a toxic PTI would give a false negative in Assay1 (and a false positive in Assay 2). […] Assay 2 then evaluated the ability of the compound to inhibit the uptake of a rescuing dose of Spermidine (Spd, 1 μM) into DFMO-treated CHO cells.

[2] = system: DFMO treated Chinese hamster ovary (CHO) cells; test: DFMO/spermidine rescue assay in CHO cells (Assay 2); type: cell-based; conditions: for IC50: Cricetulus griseus
Experimental: In the reconfirmation assay compounds were run in quadruplicate. […] A PTI compound is expected to block the entry or disrupt the intracellular trafficking of spermidine and inhibit the ability of spermidine to rescue the growth or viability of DFMO treated cells.
DFMO/Spermidine assay Here cells were treated with an inhibitor of polyamine biosynthesis (DFMO) and rescued back to high viability by the presence of exogenous polyamine (spermidine). Putative PTI compounds were screened for their ability to block the entry or intracellular trafficking of exogenous spermidine (or otherwise disrupt the intracellular trafficking of spermidine) by measuring cell viability in the presence of DFMO+spermidine+PTI compound. […] This was followed by adding 10 μL of […] and 5 μM spermidine (FAC 5 mM DFMO and 1 μM spermidine) in assay medium with a Beckman BioRAPTR FRD dispenser or 10 μL of 5 mM DFMO added in assay medium (positive control). […] A PTI compound is expected to block the entry or disrupt the intracellular trafficking of spermidine and inhibit the ability of spermidine to rescue the growth or viability of DFMO treated cells Cytotoxicity

CHO cells [3] = test: Ant44 rescue assay in CHO cells (Assay 1); type: cell-based, Chinese hamster; conditions: for IC50 / EC50: Cricetulus griseus
Experimental: CHO K1 cells were grown in growth medium (RPMI+10% FBS+1×P/S+1% l-glutamine) to 70% confluency, washed in PBS and trypsinized. Cells were plated in assay medium (serum free RPMI+2% FBS+1×l-glutamine+1×P/S+[…] aminoguanidine) at 50000 cells/mL for 200 cells per well in 4 ul using a Thermo Multidrop Combi into a 1536-well white Aurora plate.
Ant44 is a cytotoxic polyamine, i.e., N^1-(9-anthracenyl)-homospermidine. A non-toxic PTI compound would block entry or intracellular trafficking of the Ant44 toxin and rescue the cells back to high viability. Therefore, this screen tested for compounds which rescued cells from Ant44 toxicity. […] This was followed by adding 10 uL of 10 uM Ant44 (FAC 2 uM) in assay medium with a Beckman BioRAPTR FRD dispenser or 10 uL of cells added in assay medium (positive control).

[4] = read-out: IC50 values (toxicity profile)
[5] = relative growth after 72 h, read-out: L3.6pl IC50
[6] = CHO, Table 7, read-out: SAR IC50 DFMO assay
[7] = CHO, Table 7, read-out: SAR IC50 Ant44 assay
[8] = toxic above the stated concentration, CHO cells
[9] = Table 1 HTS top hits, CHO cells, read-out: DFMO Assay IC50
[10] = Table 1 HTS top hits, CHO cells, read-out: Ant44 EC50

COc1ccccc1C(=O)Nc1ccc(N2CCN(c3ccccc3OC)CC2)cc1C(=O)O [ChemDiv F687-0882]
IC50 (L3.6pl cells; [4]): > 38 µM | IC50 (L3.6pl cells; [5]): > 50 µM | L3.6pl MTC (L3.6pl cells): 9 µM

COc1ccccc1C(=O)Nc1ccc(N2CCN(c3ccccc3)CC2)cc1C(=O)O [ChemDiv F687-0884]
IC50 (L3.6pl cells; [4]): > 38 µM | IC50 (L3.6pl cells; [5]): 46.3 ± 0.02 µM | L3.6pl MTC (L3.6pl cells): 9 µM

COc1ccc(C(=O)Nc2ccc(N3CCN(c4cc(Cl)ccc4C)CC3)cc2C(=O)O)cc1 [SBI-0754479, 5-(4-(5-chloro-2-methylphenyl)piperazin-1-yl)-2-(4-methoxybenzamido)benzoic acid]
IC50 at 48 h (CHO cells [1]): 13 µM | IC50 [2, 6]: 8 µM | IC50 (L3.6pl cells; [5]): 16.8 ± 0.1 µM | L3.6pl MTC (L3.6pl cells): 8 µM | IC50 (CHO cells [3]; [7]): > 40 µM

CCOC(=O)N1CCN(c2ccc(NC(=O)c3ccc(OC)cc3)c(C(=O)O)c2)CC1 [SBI-0800692]
IC50 at 48 h (CHO cells [1]): 34 µM | tox (DFMO Assay) (CHO cells [1]; [8]): SBI- 0800692.0001 (IC50 ~20, tox >20) μM | IC50 [2, 6]: > 40 µM | IC50 [2, 9]: ~20 µM | IC50 (CHO cells [3]; [7]): > 40 µM | Ant44 EC40 (CHO cells [3]; Table 1, CHO cells): SBI- 0800692.0001 (EC40 at 31) μM

COc1ccc(C(=O)Nc2ccc(N3CCC(C(N)=O)CC3)cc2C(=O)O)cc1 [SBI-0800693]
tox (DFMO Assay) (CHO cells [1]; [8]): SBI- 0800693.0001 (Ic50 ~10 μM, tox >10 μM) | IC50 [2, 6]: > 40 µM | IC50 [2, 9]: ~10 µM | IC50 (CHO cells [3]; [7]): > 40 µM | Ant44 EC50 (CHO cells [3]; Table 1 HTS top hits, CHO cells): SBI- 0800693.0001 (NO EFFECT)

COc1ccccc1C(=O)Nc1ccc(N2CCN(c3ccccn3)CC2)cc1C(=O)O [SBI-0801308, 2-(2-methoxybenzamido)-5-(4-(pyridin-2-yl)piperazin-1-yl)benzoic acid]
IC50 at 48 h (CHO cells [1]): 21 µM | CHO MTD EC50 (CHO cells [1]; hamster): (22) uM | MTD CHO (CHO cells [1]; hamster): ~10 µM | Tox (Ant44) (CHO cells [1]; toxic above the stated concentration, CHO cells, listed with Ant44 assay): > 31 µM | tox (DFMO Assay) (CHO cells [1]; [8]): > 20 µM | IC50 [2, 6]: > 40 µM | IC50 [2, 9]: 10 to 20 µM | Active in DFMO assay? ([2]; Table 3, in CHO): No in CHO | DFMO/CHO IC50 ([2]; Table 5B): trace | EC50 (CHO cells [3]; CHO, Table 3, read-out: Ant44 rescue EC50 CHO): 10 µM | IC50 (CHO cells [3]; [7]): 4 µM | EC50 (CHO cells [3]; [10]): 5 to 10 µM | IC50 (CHO cells [3]; Table 5B, CHO cells, read-out: Ant44 IC50): 3.6 µM

COc1ccc(C(=O)Nc2ccc(N3CCN(c4cc(Cl)ccc4C)CC3)cc2C(=O)O)c(OC)c1 [SBI-0801324, 5-(4-(5-chloro-2-methylphenyl)piperazin-1-yl)-2-(2,4-dimethoxybenzamido)benzoic acid]
IC50 at 48 h (CHO cells [1]): > 40 µM | tox (DFMO Assay) (CHO cells [1]; [8]): Non tox | IC50 [2, 6]: > 40 µM | DFMO Assay IC40 ([2]; Table 1, CHO cells): 31 µM | IC50 (CHO cells [3]; [7]): > 40 µM | EC50 (CHO cells [3]; [10]): 31 µM

COc1ccc(S(=O)(=O)Nc2ccc(N3CCN(c4cc(Cl)ccc4C)CC3)cc2C(=O)O)cc1 [SBI-0801326, 5-(4-(5-chloro-2-methylphenyl)piperazin-1-yl)-2-(4-methoxyphenylsulfonamido)benzoic acid]
IC50 at 48 h (CHO cells [1]): > 40 µM | IC50 [2, 6]: > 40 µM | IC50 (CHO cells [3]; [7]): > 40 µM

COC(=O)c1cc(N2CCN(c3cc(Cl)ccc3C)CC2)ccc1NC(=O)c1ccc(OC)cc1 [SBI-0801722, methyl 5-(4-(5-chloro-2-methylphenyl)piperazin-1-yl)-2-(4-methoxybenzamido)benzoate]
IC50 at 48 h (CHO cells [1]): > 40 µM | IC50 [2, 6]: > 40 µM | IC50 (CHO cells [3]; [7]): > 40 µM

COC(=O)c1cc(N2CCN(c3cc(Cl)ccc3C)CC2)ccc1NC(=O)c1ccc(OC)cc1OC [SBI-0801723, methyl 5-(4-(5-chloro-2-methylphenyl)piperazin-1-yl)-2-(2,4-dimethoxybenzamido)benzoate]
IC50 at 48 h (CHO cells [1]): > 40 µM | IC50 [2, 6]: > 40 µM | IC50 (CHO cells [3]; [7]): > 40 µM

COC(=O)c1cc(N2CCN(c3cc(Cl)ccc3C)CC2)ccc1NC(=O)c1ccccc1OC [SBI-0801724, methyl 5-(4-(5-chloro-2-methylphenyl)piperazin-1-yl)-2-(2-methoxybenzamido)benzoate]
IC50 at 48 h (CHO cells [1]): > 40 µM | IC50 [2, 6]: > 40 µM | IC50 (CHO cells [3]; [7]): > 40 µM

COc1ccccc1C(=O)Nc1ccc(N2CCN(Cc3ccccc3)CC2)cc1C(=O)O [SBI-0814414, 5-(4-benzylpiperazin-1-yl)-2-(2-methoxybenzamido)benzoic acid]
IC50 at 48 h (CHO cells [1]): > 40 µM | IC50 [2, 6]: > 40 µM | IC50 (CHO cells [3]; [7]): > 40 µM

COc1ccccc1C(=O)Nc1ccc(N2CCN(CCc3ccccc3)CC2)cc1C(=O)O [SBI-0814415, 2-(2-methoxybenzamido)-5-(4-phenethylpiperazin-1-yl)benzoic acid]
IC50 at 48 h (CHO cells [1]): > 40 µM | IC50 [2, 6]: > 40 µM | IC50 (CHO cells [3]; [7]): > 40 µM

COc1ccccc1C(=O)Nc1ccc(N2CCN(CCCc3ccccc3)CC2)cc1C(=O)O [SBI-0814416, 2-(2-methoxybenzamido)-5-(4-(3-phenylpropyl)piperazin-1-yl)benzoic acid]
IC50 at 48 h (CHO cells [1]): > 40 µM | IC50 [2, 6]: > 40 µM | IC50 (CHO cells [3]; [7]): > 40 µM

COc1ccccc1C(=O)Nc1ccc(N2CCN(c3ccccn3)CC2)cc1 [SBI-0814417, 2-methoxy-N-(4-(4-(pyridin-2-yl)piperazin-1-yl)phenyl)benzamide]
IC50 at 48 h (CHO cells [1]): 14 µM | IC50 [2, 6]: > 40 µM | IC50 (CHO cells [3]; [7]): > 40 µM

COC(=O)c1cc(CN2CCN(c3ccccn3)CC2)ccc1NC(=O)c1ccccc1OC [SBI-0814422, Methyl 2-(2-methoxybenzamido)-5-((4-(pyridin-2-yl)piperazin-1-yl)methyl)benzoate]
IC50 at 48 h (CHO cells [1]): > 20 µM | IC50 [2, 6]: > 20 µM | IC50 (CHO cells [3]; [7]): > 20 µM

COc1ccccc1C(=O)Nc1ccc(CN2CCN(c3ccccn3)CC2)cc1C(=O)O [SBI-0814423, 2-(2-Methoxybenzamido)-5-((4-(pyridin-2-yl)piperazin-1-yl)methyl)benzoic acid]
IC50 at 48 h (CHO cells [1]): > 40 µM | IC50 [2, 6]: > 40 µM | IC50 (CHO cells [3]; [7]): > 40 µM

COc1ccccc1C(=O)Nc1ccc(N2CCN(C(=O)c3ccccn3)CC2)cc1C(=O)O [SBI-0814424, 2-(2-methoxybenzamido)-5-(4-picolinoylpiperazin-1-yl)benzoic acid]
IC50 at 48 h (CHO cells [1]): > 40 µM | IC50 [2, 6]: > 40 µM | IC50 (CHO cells [3]; [7]): > 40 µM
